This note sets out measurements from patent publication US20050163852A1, “Process for loading and thermodynamically activating drungs on polymers by means of supercritical fluids” (priority 2002, published 2005).

A short description of the data set: Activation level by Differential Scanning Calorimetry (fraction of crystalline form). The format is physicochemical. As to conditions: DSC, ΔHmelting/ΔH0 normalized to drug assayed in the polymer. The protocol: The presence of amorphous, nanocrystalline or crystal phase can be detected by means of Differential Scanning Calorimetry (DSC). Compared to the sharp melting peak of the drug crystal, the nanocrystals present a broader peak with a markedly lower maximum of temperature (I. Colombo et al. 4th Int. Conf. Pharm. Technol., 1986; F. Carli et al. Acta Pharm. Jugosl. 38, 361, 1988).
In the examples, the activation level is expressed as the fraction of crystalline form. It is determined by comparing the enthalpy relative to the melting of the crystals in the polymer (ΔHmelting) to that of pure drug (ΔH0). The ΔHmelting/ΔH0 ratio, normalized in accordance with the drug assayed in the polymer, is then considered equal to the fraction of crystalline form. The higher the amount of crystals (higher crystallinity), the lower the thermodynamic activation level of the drug.
(DSC measures the heat that a sample takes up or gives off during a temperature scan.)

Regarding `CC(C)Cc1ccc(C(C)C(=O)O)cc1` (stereo not drawn) [Ibuprofen, ibuprofen], the Crystallinity is, setting by setting: (ibuprofen, supercritical CO2) 100%; (ibuprofen, supercritical ethylene) 100%.

With `CS(=O)(=O)Nc1ccc([N+](=O)[O-])cc1Oc1ccccc1` [Nimesulide, nimesulide], the Crystallinity (nimesulide, supercritical CO2) was determined as 100%.
